In PubChem BioAssay AID248 (DTP/NCI, 2004):
Where “and” joins values, the source holds several entries; their conditions need not be identical. Identical values can stand only once. Inconclusive results and toxic doses are left out.

System: L1210 leukemia ip in BDF1 mice, survival T/C
Assay: NCI In Vivo Anticancer Drug Screen. Data for tumor model L1210 Leukemia (intraperitoneal) in B6D2F1 (BDF1) mice
Conditions: higher = longer survival
In short: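 Transplantable tumor model; survival measured in treated vs vehicle control mice. Value = treated/control.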

[1] = endpoint: mean survival time, dose: 100.0 mg/kg/injection, schedule: Q01DX009 (ip), vehicle: saline
[2] = endpoint: mean survival time, dose: 75.0 mg/kg/injection, schedule: Q01DX001 (ip), vehicle: saline

## COc1cc([N+](=O)[O-])c(C(OC(C)=O)OC(C)=O)cc1Br
endpoint: mean survival time, dose: 100.0 mg/kg/injection, schedule: Q01DX001 (ip), vehicle: acetone
  T/C: 98 % of control
[1]
  T/C: 94 % of control
endpoint: mean survival time, dose: 100.0 mg/kg/injection, schedule: Q04DX003 (ip), vehicle: saline
  T/C: 105 % of control
endpoint: mean survival time, dose: 200.0 mg/kg/injection, schedule: Q01DX001 (ip), vehicle: acetone
  T/C: 88 % of control
endpoint: mean survival time, dose: 200.0 mg/kg/injection, schedule: Q01DX009 (ip), vehicle: saline
  T/C: 86 % of control
endpoint: mean survival time, dose: 200.0 mg/kg/injection, schedule: Q04DX003 (ip), vehicle: saline
  T/C: 109 % of control
endpoint: mean survival time, dose: 400.0 mg/kg/injection, schedule: Q01DX001 (ip), vehicle: acetone
  T/C: 97 % of control
endpoint: mean survival time, dose: 400.0 mg/kg/injection, schedule: Q01DX009 (ip), vehicle: saline
  T/C: 88 % of control
endpoint: mean survival time, dose: 400.0 mg/kg/injection, schedule: Q04DX003 (ip), vehicle: saline
  T/C: 105 % of control

## [I][Hg][CH2]C1COC([CH2][Hg][I])CO1 (centres undefined)
endpoint: mean survival time, dose: 6.25 mg/kg/injection, schedule: Q01DX010 (ip), vehicle: saline
  T/C: 98 % of control
endpoint: mean survival time, dose: 12.5 mg/kg/injection, schedule: Q01DX009 (ip), vehicle: saline
  T/C: 97 % of control and 100 % of control
endpoint: mean survival time, dose: 12.5 mg/kg/injection, schedule: Q01DX010 (ip), vehicle: saline
  T/C: 106 % of control
endpoint: mean survival time, dose: 25.0 mg/kg/injection, schedule: Q01DX009 (ip), vehicle: saline
  T/C: 96 % of control and 101 % of control
endpoint: mean survival time, dose: 25.0 mg/kg/injection, schedule: Q01DX010 (ip), vehicle: saline
  T/C: 110 % of control
endpoint: mean survival time, dose: 50.0 mg/kg/injection, schedule: Q01DX009 (ip), vehicle: saline
  T/C: 93 % of control and 92 % of control
endpoint: mean survival time, dose: 50.0 mg/kg/injection, schedule: Q01DX010 (ip), vehicle: saline
  T/C: 97 % of control
[1]
  T/C: 93 % of control and 97 % of control
endpoint: median survival time, dose: 12.5 mg/kg/injection, schedule: Q01DX009 (ip), vehicle: saline
  T/C: 93 % of control
endpoint: median survival time, dose: 25.0 mg/kg/injection, schedule: Q01DX009 (ip), vehicle: saline
  T/C: 93 % of control
endpoint: median survival time, dose: 50.0 mg/kg/injection, schedule: Q01DX009 (ip), vehicle: saline
  T/C: 93 % of control

## CCC1(c2ccccc2)C(=O)NC(=O)NC1=O
[2]
  T/C: 105 % of control
endpoint: mean survival time, dose: 150.0 mg/kg/injection, schedule: Q01DX001 (ip), vehicle: saline
  T/C: 100 % of control
endpoint: median survival time, dose: 25.0 mg/kg/injection, schedule: Q12HX034 (sc), vehicle: saline
  T/C: 106 % of control
endpoint: median survival time, dose: 50.0 mg/kg/injection, schedule: Q12HX034 (sc), vehicle: saline
  T/C: 100 % of control

## c1cc2ccc3ccc[n+]4c3c2[n+](c1)CC4
[2]
  T/C: 103 % of control

## COc1cc(C=Nc2cc(Cl)c(O)c(Cl)c2)ccc1N(CCCl)CCCl
endpoint: mean survival time, dose: 1.4 mg/kg/injection, schedule: Q01DX009 (ip), vehicle: carboxymethylcellulose (CMC)
  T/C: 113 % of control
endpoint: mean survival time, dose: 2.1 mg/kg/injection, schedule: Q01DX009 (ip), vehicle: carboxymethylcellulose (CMC)
  T/C: 105 % of control
endpoint: mean survival time, dose: 5.3 mg/kg/injection, schedule: Q01DX009 (ip), vehicle: carboxymethylcellulose (CMC)
  T/C: 112 % of control
endpoint: mean survival time, dose: 10.0 mg/kg/injection, schedule: Q01DX009 (ip), vehicle: carboxymethylcellulose (CMC)
  T/C: 171 % of control
endpoint: mean survival time, dose: 11.1 mg/kg/injection, schedule: Q01DX001 (ip), vehicle: carboxymethylcellulose (CMC)
  T/C: 122 % of control
endpoint: mean survival time, dose: 12.0 mg/kg/injection, schedule: Q01DX009 (ip), vehicle: carboxymethylcellulose (CMC)
  T/C: 110 % of control
endpoint: mean survival time, dose: 16.6 mg/kg/injection, schedule: Q01DX001 (ip), vehicle: carboxymethylcellulose (CMC)
  T/C: 116 % of control and 123 % of control
endpoint: mean survival time, dose: 18.0 mg/kg/injection, schedule: Q01DX009 (ip), vehicle: carboxymethylcellulose (CMC)
  T/C: 88 % of control
endpoint: mean survival time, dose: 25.0 mg/kg/injection, schedule: Q01DX001 (ip), vehicle: carboxymethylcellulose (CMC)
  T/C: 122 % of control

## COc1ccc(/C=C(C)/C=N/NC(=O)c2ccncc2)cc1OC
endpoint: mean survival time, dose: 100.0 mg/kg/injection, schedule: Q04DX003 (ip), vehicle: saline with Tween-80
  T/C: 98 % of control
endpoint: mean survival time, dose: 200.0 mg/kg/injection, schedule: Q04DX003 (ip), vehicle: saline with Tween-80
  T/C: 97 % of control
endpoint: mean survival time, dose: 400.0 mg/kg/injection, schedule: Q04DX003 (ip), vehicle: saline with Tween-80
  T/C: 103 % of control

## CC1(C)N=C(N)N=C(N)N1c1cccc(/C=C/c2cccc([N+](=O)[O-])c2)c1
endpoint: mean survival time, dose: 50.0 mg/kg/injection, schedule: Q01DX009 (ip), vehicle: Klucel (hydroxypropylcellulose) (HPC)
  T/C: 102 % of control
endpoint: mean survival time, dose: 100.0 mg/kg/injection, schedule: Q01DX009 (ip), vehicle: Klucel (hydroxypropylcellulose) (HPC)
  T/C: 90 % of control
endpoint: mean survival time, dose: 200.0 mg/kg/injection, schedule: Q01DX009 (ip), vehicle: Klucel (hydroxypropylcellulose) (HPC)
  T/C: 106 % of control

## CN(C)c1ccc(N=NC#N)cc1
endpoint: mean survival time, dose: 1.56 mg/kg/injection, schedule: Q01DX009 (ip), vehicle: saline
  T/C: 108 % of control
endpoint: mean survival time, dose: 3.12 mg/kg/injection, schedule: Q01DX009 (ip), vehicle: saline
  T/C: 105 % of control
endpoint: mean survival time, dose: 6.25 mg/kg/injection, schedule: Q01DX009 (ip), vehicle: saline with Tween-80
  T/C: 104 % of control
endpoint: mean survival time, dose: 6.25 mg/kg/injection, schedule: Q01DX009 (ip), vehicle: saline
  T/C: 105 % of control
